Measured values: article PMC12323867 (RSC Medicinal Chemistry, 2025)
pIC50: −log10 of the molar value.

Key:
LSD1 = settings: evaluated not part of the CoREST complex; read-out: LSD1 IC50; cited from earlier work
HCT116 cells = test: CTG cell viability assay; format: cell-based, human; settings: HCT116, CellTiter-Glo, 0.0041-10 uM, 24-48 h (Fig. S3)
Description: 2.4. CTG cell viability assays
HCT116 cells were seeded onto 96-well plates at a density of 2000 cells/well and allowed 24 h to settle. Cells were then treated with LSD1 inhibitors (0.0041-10 uM) alongside WT, DMSO and cell free control wells for 24-48 h. After this time, plates were equilibrated to RT for 30 mins, then CellTiter-Glo (Promega, G9242) reagent (5 uL/100 uL media) was added. Cells were lysed on an orbital shaker for 10 mins, then incubated at RT for 2 mins to allow luminescence to stabilise, following which luminescence was recorded on a HiDEX Sense microplate reader. To obtained plotted values, luminescence of each tested well was divided by that of the DMSO control, which were plotted against concentration using GraphPad Prism. […] was applied to obtain apparent IC50 values where possible.
Figure S3. Cell viability dose response curves
(1 picture or pasted object on this page, not shown here)

LSD1 in HCT116 cells = biological target: T1, LSD1 in HCT116 cells (Homo sapiens, UniProt O60341); test: LSD1 degradation (LSD1 abundance) by western blot; format: cell-based; settings: HCT116, 0.1–10 μM, 24 hours, LSD1 antibody
T1 construct: host or cells: HCT116
Description: Using the same conditions, we also determined the effects of SP2509, 25, 27, 28, 30 and 31 on histone H3 lysine 4 dimethyl (H3K4me2) a validated substrate for LSD1 using a specific antibody for H3K4me2 (Fig. S4 ^†).
Compounds were tested at concentration ranges of 0.2–20 μM and LSD1 abundance was quantified at 24 hours (Fig. S5 ^†). 49, 52 and 54 were also evaluated at 48 and 72 hours. […] We also determined the effects of these compounds on the histone methyl marker H3K4me2 (Fig. S5 and S6 ^†).
2.5 Protocols for LSD1 degradation and histone methylation in HCT116 cells HCT116 human colon carcinoma cells were grown in Dulbecco’s Modified Eagle Medium (DMEM) supplemented with Fetal Bovine Serum (FBS, 10% final concentration) and 1x glutamine/penicillin/streptomycin. Cells were incubated at 37 °C and 5% CO2. Cells were treated […]
untreated (WT) cells were included as controls.
HCT116 cells were seeded into six well plates (400000 cells per well) and after requisite compound treatment time (24h, 48h, 72h) cells were harvested and either snap-frozen in liquid nitrogen or lysed in lysis buffer (50mM Tris-HCl, 150 mM NaCl, 0.5% NP-40, 0.5% Triton X-100 + protease inhibitor) on ice for 30 mins. This was centrifuged (15000 rpm, 4 °C, 15 mins) and the supernatant collected.
H2SO4 (0.4 M, equal volume) was added to the pellets for histone extraction and the tubes incubated overnight at 4 °C. Following this, the histone extract was centrifuged (15000 rpm, 4 °C, 15 mins) and the supernatant collected. Protein concentrations of whole cell extract were quantified via Bradford Assay using BIO-RAD Protein Assay Dye Reagent Concentrate. […]
or an equivalent volume of histone extract loaded per lane, with all extracts dyed with 4x NuPAGE LDS Sample Buffer. PageRuler Plus Prestained Ladder was used as a reference. Gel electrophoresis was carried out at 140 V for 60-90 mins, following which the proteins were transferred onto nitrocellulose membrane at 30 V for 60 mins. Membranes were blocked in LI-COR Intercept Blocking Buffer overnight at RT on a roller, following which the membrane was probed with primary antibodies for 1 h at RT. The membrane was washed with PBS + 0.1% Tween (3 x 10 mins), then incubated with secondary antibodies for 50 mins at RT. The membrane was washed again (PBS Tween 2 x 10 mins, PBS 1 x 10 mins) following which the blot was visualised with the Odyssey Infrared Imaging System. Image processing and quantification was performed with ImageStudio Lite. […]
a-tubulin (mouse) – Sigma, t5168 (1:10000 dilution)

C/C(=N\NC(=O)c1cccc(S(=O)(=O)N2CCOCC2)c1)c1cc(Cl)ccc1O [SP2509, reference compound]
pIC50 (LSD1): 7.89 | cytotoxic effects in cells (HCT116 cells): significant cytotoxic effects | LSD1 abundance (degradation) (LSD1 in HCT116 cells): no degradation or change in LSD1 levels
